# Test results published in patent US8394426B2, “Composition comprising an extract of hardy kiwi for preventing or treating baldness disorders or seborrheic skin disorders” (Viromed Co., Ltd., priority 2004, dated 2013).
# System: blood DHT
# Assay: concentration of blood DHT in mice after oral administration, measured by ELISA
# Type: in vivo
# Conditions: male C57BL/6 mice, oral finasteride 100 μg/mouse/day for 3 weeks, FIG. 4
# Protocol: To confirm the inhibition effect of hardy kiwi extract on the concentration of blood DHT, the water extract and ethanol extract of fruit of Actinidia arguta were administrated into mice and the concentration of blood DHT were determined by following procedure;
# Male C57BL/6 mice, aged 6 weeks (Seoul national university animal experimental center) were acclimated to the environment for 1 week. After 1 week, 16 mice were divided into 4 groups and each group was orally administered with 100 μl of the water extract of fruit of Actinidia arguta (1500 μg/mouse/day), 100 μl of the ethanol extract of fruit of Actinidia arguta (1500 μg/mouse/day), 100 μl of finasteride (100 μg/mouse/day), and 100 μl of drinking water (100 μg/mouse/day) for 3 weeks, respectively. After mice were sacrificed and the blood serum and spleen organ were colllected therefrom, the concentration of blood DHT was measured by ELISA (IBL-Hamburg GmbH) method. […]
# After 1 week, 8 mice were divided into 2 groups and each group was orally administered with 100 μl of the water extract of dried stem of A. arguta (1500 μg/mouse/day) and 100 μl of drinking water (100 μg/mouse/day) for 3 weeks, respectively. After mice were sacrificed and the blood serum and spleen organ was colllected therefrom, the concentration of blood DHT was measured.
smiles,measurement,value
CC(C)(C)NC(=O)[C@H]1CC[C@H]2[C@@H]3CC[C@H]4NC(=O)C=C[C@]4(C)[C@H]3CC[C@]12C [finasteride],decrease of concentration of blood DHT,about 90%
